ChEMBL document CHEMBL1127654, “An epimer of 5'-noraristeromycin and its antiviral properties” (1994)
In brackets after ≈: the same amount, converted by molar mass.

Legend:
[1] = tested on: MDCK; assay: Minimal inhibitory concentration (MIC) required to reduce Influenza B virus in MDCK cells; type: functional; details: Canis lupus familiaris
[2] = tested on: E6SM; assay: Minimal inhibitory concentration (MIC) required to reduce HSV(herpes simplex virus)-1 (KOS) cytopathicity in E6SM cells; type: functional; details: Homo sapiens
[3] = tested on: E6SM; assay: Minimal inhibitory concentration (MIC) required to reduce HSV(herpes simplex virus)-2 cytopathicity E6SM cells; type: functional; details: Homo sapiens
[4] = tested on: Vero; assay: Minimal inhibitory concentration (MIC) required to reduce Sindbis in virus in Vero cells; type: functional; details: Chlorocebus sabaeus
[5] = tested on: E6SM; assay: Minimal inhibitory concentration (MIC) required to reduce TK-HSV-1 (VMW 1837) cytopathicity in E6SM cells; type: functional; details: Homo sapiens
[6] = tested on: E6SM; assay: Minimal inhibitory concentration (MIC) required to reduce TK(Thymidine kinase)-HSV-1 (B2006) cytopathicity in E6SM cells; type: functional; details: Homo sapiens
[7] = tested on: Vero; assay: Minimal inhibitory concentration (MIC) required to reduce Parainfluenza-3 virus in Vero cells; type: functional; details: Chlorocebus sabaeus
[8] = tested on: MDCK; assay: Minimal inhibitory concentration (MIC) required to reduce Influenza A virus in MDCK cells; type: functional; details: Canis lupus familiaris
[9] = tested on: HeLa; assay: Minimal inhibitory concentration (MIC) required to reduce coxsackie B4 in HeLa cells; type: functional; details: Homo sapiens
[10] = tested on: Respiratory syncytial virus; assay: Minimal inhibitory concentration (MIC) required to reduce RSV (long) in HeLa cells; type: functional; details: human respiratory syncytial virus
[11] = tested on: HeLa; assay: Minimal inhibitory concentration (MIC) required to reduce Polio-1 in HeLa cells; type: functional; details: Homo sapiens
[12] = tested on: HeLa; assay: Minimal inhibitory concentration (MIC) required to reduce VSV in HeLa cells; type: functional; details: Homo sapiens
[13] = tested on: E6SM; assay: cells; details: Homo sapiens
[14] = tested on: Vero; assay: Minimal inhibitory concentration (MIC) required to reduce Reovirus-1 in Vero cells; type: functional; details: Chlorocebus sabaeus
[15] = tested on: Vero; assay: Minimal inhibitory concentration (MIC) required to reduce Tacaribe virus in Vero cells; type: functional; details: Chlorocebus sabaeus
[16] = tested on: E6SM; assay: cells; details: Homo sapiens; remark: listed apart in the source
[17] = tested on: Vero; assay: Minimal inhibitory concentration (MIC) required to reduce forest virus in Vero cells; type: functional; details: Chlorocebus sabaeus
[18] = tested on: HEL; assay: Minimal inhibitory concentration (MIC) required to reduce VZV (varicella zoster virus) (OKA) in HEL cells; type: functional; details: Homo sapiens
[19] = tested on: HEL; assay: Minimal inhibitory concentration (MIC) required to reduce CMV (cytomegalo virus) (AD-169) in HEL cells; type: functional, Homo sapiens
[20] = tested on: Vero; assay: Minimal inhibitory concentration (MIC) required to reduce Junin virus in Vero cells; type: functional; details: Chlorocebus sabaeus
[21] = tested on: HEL; assay: Minimal inhibitory concentration (MIC) required to reduce VZV (YS) in HEL cells; type: functional; details: Homo sapiens
[22] = tested on: MT4; assay: Minimal inhibitory concentration (MIC) required to reduce HIV-2 in MT-4 cells; type: functional; details: Homo sapiens
[23] = tested on: MDCK; assay: Minimal inhibitory concentration (MIC) required to reduce Influenza B in MDCK cells; type: functional; details: Canis lupus familiaris
[24] = tested on: MT4; assay: Minimal inhibitory concentration (MIC) required to reduce HIV(human immunodeficiency virus)-1 in MT-4 cells; type: functional
[25] = tested on: HEL; assay: Minimal inhibitory concentration (MIC) required to reduce CMV (Davis) in HEL cells; type: functional; details: Homo sapiens

Nc1nccc2c1ncn2[C@@H]1C[C@H](CO)[C@@H](O)[C@H]1O [3-DEAZAARISTEROMYCIN A] was tested, and the MIC50 [1] was greater than 30 µg/mL, the MIC50 [2] was greater than 400 µg/mL and the MIC50 [3] was greater than 400 µg/mL. For the same molecule, the MIC50 [4] was 4 µg/mL (≈ 15.1 µM), the MIC50 [5] was greater than 400 µg/mL and the MIC50 [6] was greater than 400 µg/mL. For the same molecule, the MIC50 [7] was greater than 1 µg/mL, the MIC50 [8] was greater than 100 µg/mL and the MIC50 [9] was greater than 400 µg/mL. For the same molecule, the MIC50 [10] was 100 µg/mL (≈ 378 µM), the MIC50 [11] was greater than 400 µg/mL and the MIC50 [12] was greater than 7 µg/mL. It also gave an MIC50 [13] of 1 µg/mL (≈ 3.78 µM), an MIC50 [14] of 2 µg/mL (≈ 7.57 µM) and an MIC50 [15] of 7 µg/mL (≈ 26.5 µM). For the same molecule, the MIC50 [16] was 1 µg/mL (≈ 3.78 µM), the MIC50 [17] was greater than 400 µg/mL and the MIC50 [18] was greater than 40 µg/mL. The MIC50 [19] was 7 µg/mL (≈ 26.5 µM), the MIC50 ([19]; Homo sapiens, read-out: MIC50) was greater than 7 µg/mL and the MIC50 [20] was 7 µg/mL (≈ 26.5 µM). The MIC50 [21] was greater than 40 µg/mL.
Molecule Nc1ncnc2c1ncn2[C@@H]1C[C@@H](O)[C@@H](O)[C@H]1O has an MIC50 [2] greater than 300 µg/mL, an MIC50 [3] of 300 µg/mL (≈ 1190 µM) and an MIC50 [4] greater than 200 µg/mL. It also gave an MIC50 [5] of 200 µg/mL (≈ 796 µM), an MIC50 [22] greater than 0.8 µg/mL and an MIC50 [6] of 200 µg/mL (≈ 796 µM). For the same molecule, the MIC50 [7] was 0.04 µg/mL (≈ 0.159 µM), the MIC50 [23] was greater than 200 µg/mL and the MIC50 [8] was greater than 200 µg/mL. For the same molecule, the MIC50 [9] was greater than 400 µg/mL, the MIC50 [10] was 100 µg/mL (≈ 398 µM) and the MIC50 [11] was greater than 400 µg/mL. It also gave an MIC50 [12] greater than 0.2 µg/mL, an MIC50 [13] of 0.2 µg/mL (≈ 0.796 µM) and an MIC50 [14] of 0.3 µg/mL (≈ 1.19 µM). For the same molecule, the MIC50 [15] was 27 µg/mL (≈ 107 µM), the MIC50 [16] was 0.1 µg/mL (≈ 0.398 µM) and the MIC50 [17] was greater than 200 µg/mL. It also gave an MIC50 [18] of 6 µg/mL (≈ 23.9 µM), an MIC50 ([19]; Homo sapiens, read-out: MIC50) of 5 µg/mL (≈ 19.9 µM) and an MIC50 [20] of 30 µg/mL (≈ 119 µM). For the same molecule, the MIC50 [24] was greater than 0.8 µg/mL, the MIC50 [21] was 1 µg/mL (≈ 3.98 µM) and the MIC50 [25] was 3 µg/mL (≈ 11.9 µM).
With Nc1ncnc2c1ncn2[C@@H]1C=C(CO)[C@@H](O)[C@H]1O [NEOPLANOCIN A] the MIC50 [1] was greater than 3 µg/mL, the MIC50 [2] was 70 µg/mL (≈ 266 µM) and the MIC50 [3] was greater than 100 µg/mL. The MIC50 [4] was 2 µg/mL (≈ 7.6 µM), the MIC50 [5] was 70 µg/mL (≈ 266 µM) and the MIC50 [6] was 20 µg/mL (≈ 76 µM). For the same molecule, the MIC50 [7] was 0.2 µg/mL (≈ 0.76 µM), the MIC50 [8] was 1 µg/mL (≈ 3.8 µM) and the MIC50 [9] was greater than 40 µg/mL. For the same molecule, the MIC50 [10] was greater than 1 µg/mL, the MIC50 [11] was greater than 40 µg/mL and the MIC50 [12] was 2 µg/mL (≈ 7.6 µM). For the same molecule, the MIC50 [13] was 2 µg/mL (≈ 7.6 µM), the MIC50 [14] was 0.7 µg/mL (≈ 2.66 µM) and the MIC50 [15] was 1 µg/mL (≈ 3.8 µM). The MIC50 [16] was 0.2 µg/mL (≈ 0.76 µM), the MIC50 [17] was 7 µg/mL (≈ 26.6 µM) and the MIC50 [18] was 6 µg/mL (≈ 22.8 µM). For the same molecule, the MIC50 [19] was 0.4 µg/mL (≈ 1.52 µM), the MIC50 ([19]; Homo sapiens, read-out: MIC50) was 0.6 µg/mL (≈ 2.28 µM) and the MIC50 [20] was 1 µg/mL (≈ 3.8 µM). The MIC50 [21] was 1 µg/mL (≈ 3.8 µM).
